Test results reported in a melting point compilation (Tetko et al.; mined from patent text by program, amines drawn as free bases though some values may be those of a salt).

SMILES	melting point
OC(c1cccs1)C1CCCCC1 (stereo not given)	90 to 92 °C
CC1OC2c3cc(F)ccc3N3CCC2(CC3)O1 (stereo not given)	103 to 107 °C
COC(=O)c1ncn2c1C(C)N=C(c1ccccc1F)c1cc(Cl)ccc1-2 (stereo not given)	190 to 191 °C
O=[N+]([O-])c1cc(CCl)ccc1Oc1ccc(OCc2ccccc2)cc1	106 to 107 °C
CCCn1c(=O)n(Cc2ccccc2)c(=O)c2nc(-c3ccc(/C=C/C(=O)O)cc3)[nH]c21	> 300 °C
COc1ccc2[nH]c(-c3ccccc3)cc2c1	148 to 149 °C
CC(CSC(=O)c1ccccc1)C(=O)N(CC(=O)O)C1CCC(c2ccccc2)CC1 (stereo not given)	180 to 181 °C
C=C1N(CCCC)C(=O)OC12CCN(CCC=C(c1ccc(Cl)cc1)c1ccc(Cl)cc1)CC2	110 to 111 °C
CN1CCC23c4c5ccc(OCCCCN)c4CC1C2C=CC(O)C3O5 (stereo not given)	140 to 142 °C
O=C(Nc1cccc(C(F)(F)F)c1)NC1N=C(c2ccccc2F)c2ccccc2N(CC(=O)N2CC3CCC(CC3)C2)C1=O (racemic)	226 to 227 °C
Cc1c(Cc2cnc[nH]2)cccc1NS(C)(=O)=O	224 °C
O=C(Nc1ccc(C(F)(F)F)cc1)Nc1cccc(C(=O)N2CCOCC2)n1	208 to 210 °C
COC(=O)c1ccccc1OCCOc1cccc2oc(-c3ccccc3)cc(=O)c12	160 to 161 °C
O=C1c2ccc(Cl)cc2C(=O)N1c1ccccc1	187 to 189 °C
O=C1CCC(C(=O)O)(c2cccc3ccccc23)CC1	174 to 177 °C
CC(=O)Nc1ccc(Nc2c(NCc3ccccc3)cc(C(=O)O)cc2S(=O)(=O)Nc2ccccc2NC(C)=O)cc1	268 °C
COc1ccc(OC)c(CN2CCc3cc(O)ccc3C2)c1	178 to 192 °C
O=C1c2[nH]c3cc(Cl)ccc3c2Oc2ccccc2N1Cc1ccccc1	259 to 261 °C
Cc1c(C(N)=NO)ncn1-c1cccc(Oc2ccccc2)c1	196 to 198 °C
O=[N+]([O-])c1c(NCCO)cccc1NCCO	103 to 104 °C
C=CCN1CC(C)N(C(c2cccc(O)c2)c2ccc(C(=O)N(CC)CC)s2)CC1C (stereo not given)	113 to 116 °C
COC(=O)COc1cccc2c(CCSC(c3ccc(Cl)cc3)c3ccc(Cl)cc3)coc12	68 to 69 °C
CC1(C)[C@H](CN2CCCCS2(=O)=O)CC[C@]1(C)NCC(=O)N1C[C@@H](F)C[C@H]1C#N	186 to 190 °C
S=C=Nc1ccc2oc(-c3ccco3)nc2c1	135 to 137 °C
Cc1cccc(C(=O)Nc2ccc(N3CCN(Cc4cccc(C#N)c4)CC3)cc2)c1-c1ccc(C(F)(F)F)cc1	192 °C

SMILES	melting point
O=C1C=C(NC(=O)C(=O)c2cn(Cc3cccc(C(F)(F)F)c3)c3cc([N+](=O)[O-])ccc23)CO1	279 to 281 °C
Cc1ccc(C(=O)Nc2ccc(S(N)(=O)=O)cc2)c(SSc2cc(C)ccc2C(=O)Nc2ccc(S(N)(=O)=O)cc2)c1	319 to 320 °C
N#CCc1c(Br)csc1Br	75.5 to 77 °C
COc1ccc(-c2[nH]nc3c2C(=O)c2c(NC(=O)CN4CCC(N)CC4)cccc2-3)cc1	> 300 °C
OC(CCN1CC=C(c2ccccc2)CC1)c1ccc(Cl)cc1 (stereo not given)	141 °C
COc1cc(Sc2cc(F)cc(C3(OC)CCOCC3)c2)ccc1/C(C)=N/O	155 °C
CS(=O)(=O)Nc1c(-c2cc(Cl)ccc2O)c2cc(C(F)(F)F)ccc2[nH]c1=O	263 to 265 °C
CNC(=O)c1ccc(N2CCN(Cc3cnc4c(c3)[nH]c(=O)n3cccc43)CC2)cc1	286 to 289 °C
C#CCC(CC#C)NC(=O)C(F)(F)F	55 to 57 °C
Oc1cc2c(cc1CNc1ccccc1)OCCC2	135 to 137 °C
COc1cccc(CN2Cc3cc(OC)c(O)cc3CC2C)c1 (stereo not given)	100 to 105 °C
CCCCCCCCCCCCN(CCCCCCCCCCCC)c1ccccc1C1=c2ccc(=C3C(=O)c4ccccc4C3=O)cc2OC1=O	155 °C
COCSCCNC(=C[N+](=O)[O-])NCC(O)c1ccccc1 (stereo not given)	107 to 110 °C
CC1Oc2c(cc(CN3CCN(c4ccc(C(=O)NC5CC5)cc4)CC3)cc2-c2ccccc2)NC1=O (stereo not given)	217 to 224 °C
S=C1CN=C(c2ccccc2Cl)c2cc(CCc3ccc(Cl)cc3)sc2N1	201 to 203 °C
N#CC1(C(C(=O)O)C(=O)O)CCCCC1	99.9 °C
CNC(=O)[C@@H](NC(=O)[C@H](CC(=O)NOCc1ccccc1)CC(C)C)C(C)(C)C	128 to 129 °C
COc1ccc(CNC(=O)c2cc3c(=O)n(CC#N)c(=O)n(C)c3s2)cc1	180 to 183 °C
CCOC(=O)c1ccccc1-n1c(=O)[nH]c2ccccc2c1=O	196 to 197 °C
CCN(CC)CCNC(=O)c1cccc2c(=O)c(C)c(-c3ccc(OC)cc3)oc12	126 to 127 °C
O=C(NCc1ccccc1)c1ccccc1-c1ccccc1CNS(=O)(=O)c1cccc(C(F)(F)F)c1	126 °C
COC1c2sccc2C(=O)c2ccccc2C1Br (stereo not given)	103 to 106 °C
CC(C)(C)OC(=O)[C@@H]1CCCN1C[C@@H](O)[C@H](Cc1ccc(F)cc1)NC(=O)[C@H](CC(N)=O)NC(=O)OCc1ccccc1	163 to 164 °C
Cc1cc(-n2nc(C(F)F)cc2-c2ccc(S(C)(=O)=O)cc2)ccc1F	154 to 155 °C

Further lines, results first:

melting point	SMILES
112 to 114 °C	CCOc1ccc2nc(C)cc(=O)n2c1C
186 to 189 °C	COC(=O)c1cc(Cl)cc2c1OC(C)C(=O)N2 (stereo not given)
80 °C	CC(=O)c1ccc(OCCCCCCOc2ccccc2)o1
42 to 44 °C	CCOC(=O)Oc1cc2c(s1)CCN([C@H](C(=O)OC)c1ccccc1Cl)C2
118 to 120 °C	CCCCc1nc(CCNC(=O)OC(C)(C)C)c[nH]1
92 to 94 °C	COC(=O)CC1CC(c2ccc(C#N)cc2F)=NO1 (stereo not given)
295 to 300 °C	Cc1ccc2c([N+](=O)[O-])cc([N+](=O)[O-])c(O)c2n1
156 to 158 °C	Cn1c(C(F)(F)F)cc(=O)n(-c2cc(OCc3cccs3)c(Cl)cc2F)c1=O
264 to 266 °C	CN(C)c1nnc(NN)c(=O)[nH]1
156 to 158 °C	CCOC(=O)c1ncc2[nH]c3cccc(Oc4ccc(Cl)cn4)c3c2c1COC
196 to 197 °C	C[C@@H](n1cnc2cc(N3CCOCC3)ccc2c1=O)[C@](O)(Cn1cncn1)c1ccc(F)cc1F
120 to 122 °C	O=C(O)CSc1nc(Cl)cc(Cl)n1
181 to 182 °C	COc1cc2c(Nc3ccc(Cl)cc3F)ncnc2cc1OCCN1CCSCC1
237 to 238 °C	CC(C)(C)OC(=O)Nc1cc(-c2nnc(SCc3cccc(F)c3)o2)ccn1
240 to 245 °C	CCNC(=O)NS(=O)(=O)c1ccccc1-c1ccc(Cn2c(CC)nc3c(C)ccnc32)cc1
103 to 105 °C	N#Cc1cc(Br)c(OC(=O)OCI)c(Br)c1
66.2 °C	CCCCCCCCOc1ccc(-c2ncc(OC(=O)[C@@H](Cl)[C@@H](C)CC)cn2)c(F)c1F
> 280 °C	CC(=O)NC1C2CC(=O)CC1C(N)=C(O)C2=O (stereo not given)
101 to 103 °C	COc1c(C)sc2nc(SCc3ccccc3)nn12
79.4 to 80 °C	CNN(NC)C(=O)Sc1cc(C)ccc1C(=O)OC
138 °C	CC(C)CNc1nc(-c2ccccc2)c(Br)n2ccnc12
160 to 162 °C	COC(=O)C1=C(C)NC(c2csc(Cl)n2)=NC1c1ccc(F)cc1Cl (stereo not given)
138 °C	Cc1cc(C)n2nc(S(=O)(=O)Cl)c(C#N)c2n1
98 to 99 °C	C#CCOC(=O)c1cc(Cl)c(OCC#C)c(OCC#C)c1
55 to 56.5 °C	ClCCOc1ccccc1OCCCl
207 °C	COc1cc2ncc(C#N)c(Nc3ccc4[nH]c(C)nc4c3)c2cc1OC

melting point	SMILES
191 to 194 °C	CSc1nnc(C(C)(C)C)[nH]1
153 to 155 °C	CC(C)(C)OC(=O)COC1=CC(=NS(=O)(=O)c2cccs2)c2ccccc2C1=O
55 to 58 °C	CC(=O)OC(C)c1ncnc(Cl)c1I (stereo not given)
245 to 247 °C	CCOC(=O)C1=C(COCc2nnn(CCNS(C)(=O)=O)n2)NC(C)=C(C(=O)OC)C1c1cccc(Cl)c1Cl (stereo not given)
107 to 109 °C	COc1cc(C)c(C=O)cc1OCc1ccccc1
139 to 142 °C	Cc1cccc(C#C[C@@]2(O)CCC[C@@H](NC(=O)c3ccco3)C2)c1
176 to 179 °C	COc1ccc2nc(COc3cccc(OCc4cccc(C)c4C(=O)O)c3)ccc2c1
136 °C	CCCCCS(=O)(=O)NC(=O)/C=C/c1ccc(OCCC(C)(C)O)cc1Oc1ncc(C(F)(F)F)cc1Cl
83 to 86 °C	CC(C)OCc1cnc2c([N+](=O)[O-])cccc2c1Cl
109 to 111 °C	CCOC(=O)Cn1c(-c2ccccn2)nc2cccnc21
165 to 167 °C	O=C(COc1ccc2c(-c3ccccc3F)noc2c1Br)NO
193 to 195 °C	O=C(NNS(=O)(=O)c1ccccc1)c1ccc(I)cc1
162 to 164 °C	O=C(Nc1ccnn1-c1ccc(Cl)cc1Cl)c1cccnc1Cl
47 to 48 °C	CC(=O)OCc1cc(C(C)=O)ccc1OC(C)=O
214 to 215 °C	OC1C(COCC(F)(F)F)OC(n2cnc3c(Nc4ccc(F)cc4)ncnc32)C1O (stereo not given)
51 to 53 °C	O=C(Cl)Oc1ccc(Cl)c(Cl)c1
134 to 135 °C	COc1cc(N)c(Cl)cc1C(=O)N(C)OC
154 to 155 °C	COc1ccc(-c2nc(CSCCO)nc3cc(OC)c(OC)cc23)cc1OC
139 to 150 °C	O=C(O)C1CCSc2ccc(Cl)cc21 (stereo not given)
175 to 176 °C	COC(=O)c1ncoc1-c1cc(OC)c(OC)c(OC)c1
192 to 194 °C	Cc1ncc(C#N)c(Nc2cccc3[nH]ccc23)c1I
206 °C	CCC1Cc2cc(OCC(=O)O)c(C)c(C)c2C1=O (stereo not given)
107 to 108 °C	Cc1nc(N2CCN(Cc3ccc(C(F)(F)F)cc3)C2=O)sc1C(=O)NCc1cccnc1
217 to 218 °C	CC(C)c1cccc(C(C)C)c1NC(=O)NCC1c2ccccc2-c2ccccc21
152 to 154 °C	CN(C)c1ccc(C(C)(C(=O)O)c2ccc(N(C)C)cc2)cc1
